Experimental data published in patent US20230233569A1 (Revolution Medicines, Inc., priority 2020, published 2023).

What was measured:
Type in all cases: biochemical
[1] = target: T1, KRAS G12V (Homo sapiens, UniProt P01116+P62937, G12V); assay: Disruption of BRAF RBD interaction with Ras (FRET / MOA assay, with Cyclophilin A); conditions: KRAS G12V; read-out: KRAS G12V FRET data IC50
Procedure, shortened: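 IC50 values reflect loss of K-Ras binding to BRAF RBD, read as a lowered TR-FRET ratio compared with DMSO, driven by compound-mediated K-Ras:Cyclophilin A complex formation. Compound top dose 30 μM final, 3-fold steps, 3 h incubation at 25 °C before a 1.5 h antibody step.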

[2] = target: KRAS Q61H (Homo sapiens, UniProt P01116+P62937, Q61H); assay: as above; conditions: KRAS Q61H; read-out: KRAS Q61H FRET data IC50
Source text: Disruption of B-Raf Ras-Binding Domain (BRAF^RBD) Interaction with K-Ras by Compounds of the Invention (Also Called a FRET Assay or an MOA Assay)
Note—The following protocol describes a procedure for monitoring disruption of K-Ras G12C (GMP-PNP) binding to BRAF^RBD by a compound of the invention. This protocol may also be executed substituting other Ras proteins or nucleotides.
(§1) The purpose of this biochemical assay was to measure the ability of test compounds to facilitate ternary complex formation between a nucleotide-loaded K-Ras isoform and Cyclophilin A; the resulting ternary complex disrupts binding to a BRAF^RBD construct, inhibiting K-Ras signaling through a RAF effector. Data is reported as IC50 values.
In assay buffer containing 25 mM HEPES pH 7.3, 0.002% Tween20, 0.1% BSA, 100 mM NaCl and 5 mM MgCl2, tagless Cyclophilin A, His6-K-Ras-GMPPNP, and GST-BRAF^RBD were combined in a 384-well assay plate at final concentrations of 25 μM, 12.5 nM and 50 nM, respectively. Compound was present in plate wells as a 10-point 3-fold dilution series starting at a final concentration of 30 μM. After incubation at 25° C. for 3 hours, a mixture of Anti-His Eu-W1024 and anti-GST allophycocyanin was then added to assay sample wells at final concentrations of 10 nM and 50 nM, respectively, and the reaction incubated for an additional 1.5 hours. […] Compounds that facilitate disruption of a K-Ras:RAF complex were identified as those eliciting a decrease in the TR-FRET ratio relative to DMSO control wells.
as §1, with “BRAF^RBDD” for “BRAF^RBD”

[3] = target: KRAS G12D (Homo sapiens, UniProt P01116+P62937, G12D); assay: Ras-Raf disruption / FRET / MOA assay (BRAF RBD); conditions: Ras-Raf disruption, with Cyclophilin A; read-out: KRAS G12D FRET data IC50
Procedure, shortened: (§2)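 TR-FRET in 25 mM HEPES pH 7.3, 100 mM NaCl, 5 mM MgCl2, 0.1% BSA, 0.002% Tween20 with 25 μM Cyclophilin A, 12.5 nM His6-Ras-GMPPNP, 50 nM GST-BRAF RBD; compound 10-point 3-fold series from 30 μM. After 3 h at 25 °C, Eu anti-His/APC anti-GST added for 1.5 h; IC50 from ratio decrease versus DMSO.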

[4] = target: KRAS G12S (Homo sapiens, UniProt P01116+P62937, G12S); assay: Ras-Raf disruption / FRET / MOA assay (BRAF RBD); conditions: Ras-Raf disruption, with Cyclophilin A; read-out: KRAS G12S FRET data IC50
Procedure, shortened: as §2

[5] = target: T1, KRAS G12V; assay: Ras-Raf disruption / FRET / MOA assay (BRAF RBD); conditions: Ras-Raf disruption, with Cyclophilin A; read-out: KRAS G12V FRET data IC50
Procedure, shortened: as §2

[6] = target: KRAS G13C (Homo sapiens, UniProt P01116+P62937, G13C); assay: Ras-Raf disruption / FRET / MOA assay (BRAF RBD); conditions: Ras-Raf disruption, with Cyclophilin A; read-out: KRAS G13C FRET data IC50
Procedure, shortened: as §2

[7] = target: KRAS G13D (Homo sapiens, UniProt P01116+P62937, G13D); assay: Ras-Raf disruption / FRET / MOA assay (BRAF RBD); conditions: Ras-Raf disruption, with Cyclophilin A; read-out: KRAS G13D FRET data IC50
Procedure, shortened: as §2

[8] = target: KRAS WT (Homo sapiens, UniProt P01116+P62937); assay: Ras-Raf disruption / FRET / MOA assay (BRAF RBD); conditions: Ras-Raf disruption, with Cyclophilin A; read-out: KRAS WT FRET data IC50
Procedure, shortened: as §2

[9] = target: NRAS G12C (Homo sapiens, UniProt P01111+P62937, G12C); assay: Ras-Raf disruption / FRET / MOA assay (BRAF RBD); conditions: NRAS G12C; read-out: NRAS G12C FRET data IC50
Procedure, shortened: as §2

[10] = target: KRAS G12C (Homo sapiens, UniProt P01116+P62937, G12C); assay: Ras-Raf disruption / FRET / MOA assay (BRAF RBD); conditions: Ras-Raf disruption, with Cyclophilin A; read-out: KRAS G12C FRET data IC50
Procedure, shortened: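 His6-K-Ras G12C-GMPPNP (12.5 nM), GST-BRAF RBD (50 nM) and tagless Cyclophilin A (25 μM) incubated 3 h at 25 °C with compound (10-point 3-fold series from 30 μM), pH 7.3 HEPES buffer. Anti-His Eu/anti-GST APC added for 1.5 h; decreased TR-FRET ratio vs DMSO gives IC50.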

KRAS Q61H, sequence (P01116 1-169 isoform P01116-2 Q61H limits assumed): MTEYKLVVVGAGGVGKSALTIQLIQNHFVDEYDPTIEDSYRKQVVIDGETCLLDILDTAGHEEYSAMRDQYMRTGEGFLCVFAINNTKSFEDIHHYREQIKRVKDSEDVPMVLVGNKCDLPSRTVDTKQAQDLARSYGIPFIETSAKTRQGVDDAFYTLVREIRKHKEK
KRAS Q61H, sequence (P62937 whole entry, the tested form may be a part): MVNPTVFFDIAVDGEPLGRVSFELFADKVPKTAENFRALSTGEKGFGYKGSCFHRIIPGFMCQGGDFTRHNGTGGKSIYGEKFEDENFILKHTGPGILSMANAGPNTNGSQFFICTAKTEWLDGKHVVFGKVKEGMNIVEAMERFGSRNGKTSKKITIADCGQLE
KRAS G13D, sequence (P01116 1-169 isoform P01116-2 G13D limits assumed): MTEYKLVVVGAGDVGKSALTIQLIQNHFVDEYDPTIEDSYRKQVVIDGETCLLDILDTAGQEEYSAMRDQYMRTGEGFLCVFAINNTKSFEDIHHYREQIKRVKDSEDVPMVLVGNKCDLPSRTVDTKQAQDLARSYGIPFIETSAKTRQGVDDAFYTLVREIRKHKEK
KRAS G13D, sequence (P62937 whole entry): as the sequence (P62937 whole entry, the tested form may be a part) above
NRAS G12C, sequence (P01111 whole entry G12C): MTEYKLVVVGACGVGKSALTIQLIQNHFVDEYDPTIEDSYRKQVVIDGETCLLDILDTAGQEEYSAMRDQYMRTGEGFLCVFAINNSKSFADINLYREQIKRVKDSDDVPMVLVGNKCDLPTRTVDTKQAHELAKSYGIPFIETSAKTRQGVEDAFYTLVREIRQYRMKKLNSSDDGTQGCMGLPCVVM
NRAS G12C, sequence (P62937 whole entry): as the sequence (P62937 whole entry, the tested form may be a part) above
T1 sequence (P01116 1-169 isoform P01116-2 G12V limits assumed): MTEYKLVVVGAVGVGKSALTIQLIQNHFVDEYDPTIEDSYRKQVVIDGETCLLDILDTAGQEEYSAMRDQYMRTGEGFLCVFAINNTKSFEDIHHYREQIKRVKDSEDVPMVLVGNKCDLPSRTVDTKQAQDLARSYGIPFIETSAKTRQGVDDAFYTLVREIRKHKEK
T1 sequence (P62937 whole entry): as the sequence (P62937 whole entry, the tested form may be a part) above
KRAS G12C, sequence (P01116 1-169 isoform P01116-2 G12C limits assumed): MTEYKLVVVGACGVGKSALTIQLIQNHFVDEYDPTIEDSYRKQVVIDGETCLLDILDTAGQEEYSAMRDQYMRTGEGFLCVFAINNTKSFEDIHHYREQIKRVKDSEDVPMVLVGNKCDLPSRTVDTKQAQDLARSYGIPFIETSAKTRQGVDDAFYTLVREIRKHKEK
KRAS G12C, sequence (P62937 whole entry): as the sequence (P62937 whole entry, the tested form may be a part) above
KRAS WT, sequence (P01116 1-169 isoform P01116-2 limits assumed): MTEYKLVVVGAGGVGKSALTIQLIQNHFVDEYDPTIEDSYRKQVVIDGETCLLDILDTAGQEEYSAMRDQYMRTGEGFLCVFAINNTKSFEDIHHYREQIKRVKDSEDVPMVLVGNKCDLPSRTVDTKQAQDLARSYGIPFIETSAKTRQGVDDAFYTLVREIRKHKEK
KRAS WT, sequence (P62937 whole entry): as the sequence (P62937 whole entry, the tested form may be a part) above
KRAS G12D, sequence (P01116 1-169 isoform P01116-2 G12D limits assumed): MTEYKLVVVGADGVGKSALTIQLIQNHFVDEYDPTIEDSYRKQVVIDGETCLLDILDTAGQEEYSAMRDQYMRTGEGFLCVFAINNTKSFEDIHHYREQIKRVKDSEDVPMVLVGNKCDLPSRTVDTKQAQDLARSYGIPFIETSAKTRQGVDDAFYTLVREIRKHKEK
KRAS G12D, sequence (P62937 whole entry): as the sequence (P62937 whole entry, the tested form may be a part) above
KRAS G12S, sequence (P01116 1-169 isoform P01116-2 G12S limits assumed): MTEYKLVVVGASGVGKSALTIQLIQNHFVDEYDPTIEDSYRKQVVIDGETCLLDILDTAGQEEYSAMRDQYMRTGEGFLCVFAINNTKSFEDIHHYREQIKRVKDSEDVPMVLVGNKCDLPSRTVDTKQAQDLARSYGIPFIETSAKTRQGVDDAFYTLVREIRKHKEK
KRAS G12S, sequence (P62937 whole entry): as the sequence (P62937 whole entry, the tested form may be a part) above
KRAS G13C, sequence (P01116 1-169 isoform P01116-2 G13C limits assumed): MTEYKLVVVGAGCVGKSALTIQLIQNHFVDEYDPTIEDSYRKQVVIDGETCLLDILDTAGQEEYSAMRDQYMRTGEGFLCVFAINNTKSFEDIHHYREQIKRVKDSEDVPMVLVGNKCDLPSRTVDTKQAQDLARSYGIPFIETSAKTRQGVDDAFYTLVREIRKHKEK
KRAS G13C, sequence (P62937 whole entry): as the sequence (P62937 whole entry, the tested form may be a part) above

Compound	IC50 [1] [nM]	IC50 [2] [nM]	IC50 [3] [nM]	IC50 [4] [nM]	IC50 [5] [nM]	IC50 [6] [nM]	IC50 [7] [nM]	IC50 [8] [nM]	IC50 [9] [nM]	IC50 [10] [nM]
CCn1c(-c2cccnc2[C@H](C)OC)c2c3cc(ccc31)-c1csc(n1)C[C@H](NC(=O)[C@H](C(C)C)N(C)C(=O)[C@H]1[C@@H]3CNC[C@@H]31)C(=O)N1CCC[C@H](N1)C(=O)OCC(C)(C)C2 (atropisomer, axis not shown) [Example A448]	> 10000	1000 to 10000	–	–	–	–	–	–	–	–
CCn1c(-c2cccnc2[C@H](C)OC)c2c3nc(ccc31)-c1csc(n1)C[C@H](NC(=O)[C@H](C(C)C)N(C)C(=O)N1CC(OC)C1)C(=O)N1CCC[C@H](N1)C(=O)OCC(C)(C)C2 (atropisomer, axis not shown) [Example A613]	–	1000 to 10000	–	–	–	–	–	–	–	–
CCn1c(-c2cccnc2[C@H](C)OC)c2c3cc(ccc31)-c1cc(O)cc(c1)C[C@H](NC(=O)[C@H](C(C)C)N(C)C(=O)N1CCCN(C(=O)[C@@H]3CN3)CC1)C(=O)N1CCC[C@H](N1)C(=O)OCC(C)(C)C2 [Example 173]	–	–	10 to 100	10 to 100	10 to 100	10 to 100	10 to 100	10 to 100	10 to 100	10 to 100
CCn1c(-c2cccnc2[C@H](C)OC)c2c3cc(ccc31)-c1cc(O)cc(c1)C[C@H](NC(=O)[C@H](C1CCCC1)N1CC[C@@]3(CCN(C(=O)[C@H]4CN4)C3)C1=O)C(=O)N1CCC[C@H](N1)C(=O)OCC(C)(C)C2 [Example 174]	–	–	100 to 1000	10 to 100	10 to 100	10 to 100	10 to 100	10 to 100	< 10	< 10
CCn1c(-c2cccnc2[C@H](C)OC)c2c3cc(ccc31)-c1cc(O)cc(c1)C[C@H](NC(=O)[C@H](C1CCCC1)N1CC[C@]3(CCN(C(=O)[C@H]4CN4)C3)C1=O)C(=O)N1CCC[C@H](N1)C(=O)OCC(C)(C)C2 [Example 175, (2S)-2-((S)-7-((R)-aziridine-2-carbonyl)-1-oxo-2,7-diazaspiro[4.4]nonan-2-yl)-2-cyclopentyl-N-((6^3S,4S)-1^1-ethyl-2^5-hydroxy-1^2-(2-((S)-1-methoxyethyl)pyridin-3-yl)-10,10-dimethyl-5,7-dioxo-6^1,6^2,6^3,6^4,6^5,6^6-hexahydro-1^1H-8-oxa-1(5,3)-indola-6(1,3)-pyridazina-2(1,3)-benzenacycloundecaphane-4-yl)acetamide]	–	–	10 to 100	10 to 100	10 to 100	10 to 100	10 to 100	10 to 100	< 10	< 10
CCn1c(-c2cccnc2[C@H](C)OC)c2c3cc(ccc31)-c1cc(O)cc(c1)C[C@H](NC(=O)[C@H](C(C)C)N(C)C(=O)N1CCN(C(=O)[C@H]3CN3)CC1)C(=O)N1CCC[C@H](N1)C(=O)OCC(C)(C)C2 [Example 177, 4-((R)-aziridine-2-carbonyl)-N-((2S)-1-(((6^3S,4S)-1^1-ethyl-2^5-hydroxy-1^2-(2-((S)-1-methoxyethyl)pyridin-3-yl)-10,10-dimethyl-5,7-dioxo-6^1,6^2,6^3,6^4,6^5,6^6-hexahydro-1^1H-8-oxa-1(5,3)-indola-6(1,3)-pyridazina-2(1,3)-benzenacycloundecaphane-4-yl)amino)-3-methyl-1-oxobutan-2-yl)-N-methylpiperazine-1-carboxamide]	–	–	100 to 1000	10 to 100	10 to 100	10 to 100	10 to 100	10 to 100	10 to 100	10 to 100
CCn1c(-c2cccnc2[C@H](C)OC)c2c3cc(ccc31)-c1cc(O)cc(c1)C[C@H](NC(=O)[C@H](C(C)C)N(C)C(=O)CC1CN(C(=O)[C@@H]3CN3)C1)C(=O)N1CCC[C@H](N1)C(=O)OCC(C)(C)C2 [Example 178]	–	–	100 to 1000	100 to 1000	100 to 1000	10 to 100	100 to 1000	100 to 1000	10 to 100	10 to 100
CCn1c(-c2cccnc2[C@H](C)OC)c2c3cc(ccc31)-c1cc(O)cc(c1)C[C@H](NC(=O)[C@H](C(C)C)N(C)C(=O)CC1CN(C(=O)[C@H]3CN3)C1)C(=O)N1CCC[C@H](N1)C(=O)OCC(C)(C)C2 [Example 179]	–	–	100 to 1000	100 to 1000	100 to 1000	10 to 100	100 to 1000	100 to 1000	10 to 100	10 to 100
CCn1c(-c2cccnc2[C@H](C)OC)c2c3cc(ccc31)-c1cc(O)cc(c1)C[C@H](NC(=O)[C@H](C(C)C)N(C)C(=O)C1CC3(C1)CN(C(=O)[C@@H]1CN1)C3)C(=O)N1CCC[C@H](N1)C(=O)OCC(C)(C)C2 [Example 180]	–	–	1000 to 10000	100 to 1000	100 to 1000	10 to 100	100 to 1000	100 to 1000	100 to 1000	100 to 1000
CCn1c(-c2cccnc2[C@H](C)OC)c2c3cc(ccc31)-c1cc(O)cc(c1)C[C@H](NC(=O)[C@H](C(C)C)N(C)C(=O)[C@H]1C[C@H](NC(=O)[C@H]3CN3)C1)C(=O)N1CCC[C@H](N1)C(=O)OCC(C)(C)C2 [Example 182]	–	–	100 to 1000	10 to 100	10 to 100	< 10	10 to 100	10 to 100	10 to 100	10 to 100
CCn1c(-c2cccnc2[C@H](C)OC)c2c3cc(ccc31)-c1cc(O)cc(c1)C[C@H](NC(=O)[C@H](C(C)C)N(C)C(=O)N1CCN(C(=O)[C@@H]3CN3)C(=O)C1)C(=O)N1CCC[C@H](N1)C(=O)OCC(C)(C)C2 [Example 194]	–	–	100 to 1000	100 to 1000	100 to 1000	10 to 100	10 to 100	100 to 1000	100 to 1000	100 to 1000
CCn1c(-c2cccnc2[C@H](C)OC)c2c3cc(ccc31)-c1cc(O)cc(c1)C[C@H](NC(=O)[C@H](C(C)C)N(C)C(=O)[C@@H]1OCC[C@@H]1c1ccccc1)C(=O)N1CCC[C@H](N1)C(=O)OCC(C)(C)C2 [Example A415]	–	< 10	–	–	–	–	–	–	–	–
